Source: US9346795B2, “Substituted sulfonamides useful as antiapoptotic Bcl inhibitors” (Bristol-Myers Squibb Company, priority 2011, dated 2016)
pIC50: −log10 of the molar value.

Tests used:
Bcl-2 = Bcl-2 (Homo sapiens (Human), UniProt P10415); assay: Bcl-2/Bim Fluorescence Polarization Assay (FPA); format: binding
Protocol: Bcl-2/Bim Fluorescence Polarization Assay (FPA)
The assays were performed in black flat-bottom 384-well plates. […] The reaction was incubated at room temperature for 60 minutes and fluorescence polarization of the reaction was detected on the LJL Plate Reader. Inhibition data were calculated from mP values generated by the no protein control reactions for 100% inhibition and vehicle-only reactions for 0% inhibition. The final concentrations of reagents in the assay were 4.9 nM BCL-2, 5 nM fluoresceinated 18-mer BIM peptide and 1% DMSO. […] Compounds were dissolved at 10 mM in dimethylsulfoxide (DMSO) and evaluated at eleven concentrations. IC50 values were derived by non-linear regression analysis.

Bcl-xL = Bcl-xL (Homo sapiens (Human), UniProt Q07817); assay: Bcl-xL/Bim Fluorescence Resonance Energy Transfer Assay (FRET); format: binding
Protocol: Bcl-xL/Bim Fluorescence Resonance Energy Transfer Assay (FRET) The assays were performed in black flat-bottom 384-well plates. The final assay volume was 55 μl prepared from additions of Biotin-Bcl-xL (Bcl-xL: GENBANK® Accession No. […] The reaction was incubated at room temperature for 60 minutes. After 60 minutes, 5 μL of Streptavidin-Terbium FRET detection reagent (Perkin Elmer) was added to the reaction mixture and incubated at room temperature in the dark for 30 mins. […] Compounds were dissolved at 10 mM in dimethylsulfoxide (DMSO) and evaluated at eleven concentrations. IC50 values were derived by non-linear regression analysis.

Sequence of Bcl-xL (Q07817 whole entry): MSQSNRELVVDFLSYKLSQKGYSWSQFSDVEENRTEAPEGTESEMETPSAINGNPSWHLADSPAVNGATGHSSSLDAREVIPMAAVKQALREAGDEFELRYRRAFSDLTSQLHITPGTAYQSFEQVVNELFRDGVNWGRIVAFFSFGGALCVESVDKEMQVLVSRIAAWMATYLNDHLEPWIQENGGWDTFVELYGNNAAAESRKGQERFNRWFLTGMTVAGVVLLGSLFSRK
Sequence of Bcl-2 (P10415 whole entry): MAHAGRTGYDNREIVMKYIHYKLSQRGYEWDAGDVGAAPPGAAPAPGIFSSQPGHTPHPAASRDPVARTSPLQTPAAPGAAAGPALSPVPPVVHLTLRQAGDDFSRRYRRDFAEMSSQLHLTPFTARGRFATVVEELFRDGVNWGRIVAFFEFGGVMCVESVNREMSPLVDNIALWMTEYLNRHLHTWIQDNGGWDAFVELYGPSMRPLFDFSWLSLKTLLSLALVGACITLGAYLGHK

pIC50 (Bcl-2) | pIC50 (Bcl-xL) | SMILES
8.09 | – | CCCCc1c(-c2ccc(C(=O)NS(=O)(=O)c3ccc4ccccc4c3)cc2C(=O)N2CCc3ccccc3C2)c(CO)nn1-c1ccc(OCC(O)CO)cc1 (racemic) [Example 258, (±)-4-(5-Butyl-1-(4-(2,3-dihydroxypropoxy)phenyl)-3-(hydroxymethyl)-1H-pyrazol-4-yl)-N-(naphthalen-2-ylsulfonyl)-3-(1,2,3,4-tetrahydroisoquinoline-2-carbonyl)benzamide]
7.52 | 7.70 | CCCCN(CCCC)C(=O)c1nn(-c2ccc(C(=O)NS(=O)(=O)c3ccc4ccccc4c3)cc2C(=O)N2CCc3ccccc3C2)c(C)c1Cl [Example 1, N,N-Dibutyl-4-chloro-5-methyl-1-(4-(naphthalen-2-ylsulfonylcarbamoyl)-2-(1,2,3,4-tetrahydroisoquinoline-2-carbonyl)phenyl)-1H-pyrazole-3-carboxamide]
6.70 | 7.52 | CCCCN(CCCC)C(=O)c1nn(-c2ccc(C(=O)NS(=O)(=O)c3ccc4c(Cl)cccc4c3)cc2C(=O)N2CCc3ccccc3C2)c(C)c1Cl [Example 2, N,N-dibutyl-4-chloro-1-(4-(5-chloronaphthalen-2-ylsulfonylcarbamoyl)-2-(1,2,3,4-tetrahydroisoquinoline-2-carbonyl)phenyl)-5-methyl-1H-pyrazole-3-carboxamide]
7.52 | 7.15 | CCCCN(CCCC)C(=O)c1nn(-c2ccc(C(=O)NS(=O)(=O)c3ccc4cccc(Cl)c4c3)cc2C(=O)N2CCc3ccccc3C2)c(C)c1Cl [Example 5, N,N-dibutyl-4-chloro-1-(4-(8-chloronaphthalen-2-ylsulfonylcarbamoyl)-2-(1,2,3,4-tetrahydroisoquinoline-2-carbonyl)phenyl)-5-methyl-1H-pyrazole-3-carboxamide]
6.04 | 7.70 | CCCCN(CCCC)C(=O)c1nn(-c2ccc(C(=O)NS(=O)(=O)c3ccc4cccc(C#N)c4c3)cc2C(=O)N2CCc3ccccc3C2)c(C)c1Cl [Example 8, N,N-dibutyl-4-chloro-1-(4-(8-cyanonaphthalen-2-ylsulfonylcarbamoyl)-2-(1,2,3,4-tetrahydroisoquinoline-2-carbonyl)phenyl)-5-methyl-1H-pyrazole-3-carboxamide]
7.05 | 7.05 | CCCCN(CCCC)C(=O)c1nn(-c2ccc(C(=O)NS(=O)(=O)c3ccc4ccc(Cl)cc4c3)cc2C(=O)N2CCc3ccccc3C2)c(C)c1Cl [Example 10, N,N-dibutyl-4-chloro-1-(4-(7-chloronaphthalen-2-ylsulfonylcarbamoyl)-2-(1,2,3,4-tetrahydroisoquinoline-2-carbonyl)phenyl)-5-methyl-1H-pyrazole-3-carboxamide]
– | 7.30 | CCCCN(CCCC)C(=O)c1nn(-c2ccc(C(=O)NS(=O)(=O)c3ccc4ccc(I)cc4c3)cc2C(=O)N2CCc3ccccc3C2)c(C)c1Cl [Example 11, N,N-dibutyl-4-chloro-1-(4-(7-iodonaphthalen-2-ylsulfonylcarbamoyl)-2-(1,2,3,4-tetrahydroisoquinoline-2-carbonyl)phenyl)-5-methyl-1H-pyrazole-3-carboxamide]
8.00 | 7.52 | CCCCN(CCCC)C(=O)c1nn(-c2ccc(C(=O)NS(=O)(=O)c3ccc4ccc(OCc5ccccc5)cc4c3)cc2C(=O)N2CCc3ccccc3C2)c(C)c1Cl [Example 18, 1-(4-(7-(benzyloxy)naphthalen-2-ylsulfonylcarbamoyl)-2-(1,2,3,4-tetrahydroisoquinoline-2-carbonyl)phenyl)-N,N-dibutyl-4-chloro-5-methyl-1H-pyrazole-3-carboxamide]
7.30 | 7.70 | CCCCN(CCCC)C(=O)c1nn(-c2ccc(C(=O)NS(=O)(=O)c3ccc4ccc(OC(C)C)cc4c3)cc2C(=O)N2CCc3ccccc3C2)c(C)c1Cl [Example 24, N,N-dibutyl-4-chloro-1-(4-(7-isopropoxynaphthalen-2-ylsulfonylcarbamoyl)-2-(1,2,3,4-tetrahydroisoquinoline-2-carbonyl)phenyl)-5-methyl-1H-pyrazole-3-carboxamide]
6.96 | 7.40 | CCCCN(CCCC)C(=O)c1nn(-c2ccc(C(=O)NS(=O)(=O)c3ccc4cccc(OCCN5CCOCC5)c4c3)cc2C(=O)N2CCc3ccccc3C2)c(C)c1Cl [Example 27, N,N-dibutyl-4-chloro-5-methyl-1-(4-(8-(2-morpholinoethoxy)naphthalen-2-ylsulfonylcarbamoyl)-2-(1,2,3,4-tetrahydroisoquinoline-2-carbonyl)phenyl)-1H-pyrazole-3-carboxamide]
7.52 | 7.15 | CCCCN(CCCC)C(=O)c1nn(-c2ccc(C(=O)NS(=O)(=O)c3ccc4c(N(C)C)ccc(Br)c4c3)cc2C(=O)N2CCc3ccccc3C2)c(C)c1Cl [Example 31, 1-(4-(8-bromo-5-(dimethylamino)naphthalen-2-ylsulfonylcarbamoyl)-2-(1,2,3,4-tetrahydroisoquinoline-2-carbonyl)phenyl)-N,N-dibutyl-4-chloro-5-methyl-1H-pyrazole-3-carboxamide]
6.54 | 7.30 | CCCCN(CCCC)C(=O)c1nn(-c2ccc(C(=O)NS(=O)(=O)c3ccc4cccc(OCCCN5CCOCC5)c4c3)cc2C(=O)N2CCc3ccccc3C2)c(C)c1Cl [Example 32, N,N-dibutyl-4-chloro-5-methyl-1-(4-(8-(3-morpholinopropoxy)naphthalen-2-ylsulfonylcarbamoyl)-2-(1,2,3,4-tetrahydroisoquinoline-2-carbonyl)phenyl)-1H-pyrazole-3-carboxamide]
6.54 | 7.40 | CCCCN(CCCC)C(=O)c1nn(-c2ccc(C(=O)NS(=O)(=O)c3ccc4ccc(OCCCN5CCOCC5)cc4c3)cc2C(=O)N2CCc3ccccc3C2)c(C)c1Cl [Example 34, N,N-dibutyl-4-chloro-5-methyl-1-(4-(7-(3-morpholinopropoxy)naphthalen-2-ylsulfonylcarbamoyl)-2-(1,2,3,4-tetrahydroisoquinoline-2-carbonyl)phenyl)-1H-pyrazole-3-carboxamide]
6.29 | 7.40 | CCCCN(CCCC)C(=O)c1nn(-c2ccc(C(=O)NS(=O)(=O)c3ccc4ccc(OCCCN5CCN(C)CC5)cc4c3)cc2C(=O)N2CCc3ccccc3C2)c(C)c1Cl [Example 35, N,N-dibutyl-4-chloro-5-methyl-1-(4-(7-(3-(4-methylpiperazin-1-yl)propoxy)naphthalen-2-ylsulfonylcarbamoyl)-2-(1,2,3,4-tetrahydroisoquinoline-2-carbonyl)phenyl)-1H-pyrazole-3-carboxamide]
6.31 | 8.00 | CCCCN(CCCC)C(=O)c1nn(-c2ccc(C(=O)NS(=O)(=O)c3ccc4ccc(OC(C)CN(C)C)cc4c3)cc2C(=O)N2CCc3ccccc3C2)c(C)c1Cl (stereo not drawn) [Example 37, N,N-dibutyl-4-chloro-1-(4-(7-(1-(dimethylamino)propan-2-yloxy)naphthalen-2-ylsulfonylcarbamoyl)-2-(1,2,3,4-tetrahydroisoquinoline-2-carbonyl)phenyl)-5-methyl-1H-pyrazole-3-carboxamide]
5.84 | 7.70 | CCCCN(CCCC)C(=O)c1nn(-c2ccc(C(=O)NS(=O)(=O)c3ccc4ccc(OCCCN(C)C)cc4c3)cc2C(=O)N2CCc3ccccc3C2)c(C)c1Cl [Example 39, N,N-dibutyl-4-chloro-1-(4-(7-(3-(dimethylamino)propoxy)-naphthalen-2-ylsulfonylcarbamoyl)-2-(1,2,3,4-tetrahydroisoquinoline-2-carbonyl)phenyl)-5-methyl-1H-pyrazole-3-carboxamide]
5.42 | 7.52 | CCCCN(CCCC)C(=O)c1nn(-c2ccc(C(=O)NS(=O)(=O)c3ccc4ccc(OCCCN5CCCC5)cc4c3)cc2C(=O)N2CCc3ccccc3C2)c(C)c1Cl [Example 40, N,N-dibutyl-4-chloro-5-methyl-1-(4-(7-(3-(pyrrolidin-1-yl)propoxy)naphthalen-2-ylsulfonylcarbamoyl)-2-(1,2,3,4-tetrahydroisoquinoline-2-carbonyl)phenyl)-1H-pyrazole-3-carboxamide]
8.41 | 7.70 | CCCCN(CCCC)C(=O)c1nn(-c2ccc(C(=O)NS(=O)(=O)c3ccc4c(Cl)ccc(Br)c4c3)cc2C(=O)N2CCc3ccccc3C2)c(C)c1Cl [Example 43, 1-(4-(8-bromo-5-chloronaphthalen-2-ylsulfonylcarbamoyl)-2-(1,2,3,4-tetrahydroisoquinoline-2-carbonyl)phenyl)-N,N-dibutyl-4-chloro-5-methyl-1H-pyrazole-3-carboxamide]
7.30 | – | CCCCN(CCCC)C(=O)c1nn(-c2ccc(C(=O)NS(=O)(=O)c3ccc4ccccc4c3)cc2C(=O)N2Cc3ccccc3C[C@H]2CO)c(C)c1Cl [Example 91, N,N-Dibutyl-4-chloro-1-(2-((S)-3-(hydroxymethyl)-1,2,3,4-tetrahydroisoquinoline-2-carbonyl)-4-(naphthalen-2-ylsulfonylcarbamoyl)phenyl)-5-methyl-1H-pyrazole-3-carboxamide]
7.70 | – | CCCCN(CCCC)C(=O)c1nn(-c2ccc(C(=O)NS(=O)(=O)c3ccc4ccccc4c3)cc2C(=O)N2Cc3ccccc3C[C@H]2CNC2CCN(C)CC2)c(C)c1Cl [Example 106, N,N-Dibutyl-4-chloro-5-methyl-1-(2-((S)-3-((1-methylpiperidin-4-ylamino)methyl)-1,2,3,4-tetrahydroisoquinoline-2-carbonyl)-4-(naphthalen-2-ylsulfonylcarbamoyl)phenyl)-1H-pyrazole-3-carboxamide]
